Results on five molecules are retold here after patent US8796228B2, “Method for neutralizing fungi using sophorolipids and antifungal sophorolipids for use therein” (Synthezyme, LLC, priority 2004, dated 2014).

Common to all, as to test: Antifungal assay, growth inhibition by OD in 96 well plates
Common to all, as to format: cell-based
Details in all cases: 5 mg/ml sophorolipid solution, 48 hours at 30° C., OD at 400 nm vs control wells

The test system of test [1] is Candida antartica. As for the experimental part: (§1) Sophorolipid solution was prepared by adding 15 mg of compound in 1 ml sucrose solution, pH 8.5.
(§2) All assay were carried out in 96 well plates using Yeast extract-Maltose medium. The logarithmic growing cultures were incubated with 5 mg/ml of sophorolipids for 48 hours at 30° C. Following incubation, the wells were measured for Optical Density (OD) at 400 nm using microtitre plate readers. Percent (%) inhibition of growth was calculated corresponding to the OD in control wells containing no sophorolipid.

Test [2] relates to Candida tropicalis. The method, then: as §1, §2
Test [3] concerns Candida albicans. As for the experimental part: as §1, §2

Take `CCCCCCOC(=O)CCCCCCC/C=C\CCCCCCC(C)O[C@@H]1O[C@H](CO)[C@@H](O)[C@H](O)[C@H]1O[C@@H]1O[C@H](CO)[C@@H](O)[C@H](O)[C@H]1O` (relative stereo) [Hexyl SL, Hexyl 17-L-[(2′-O-β-D-glucopyranosyl-β-D-glucopyranosyl)-oxy]-cis-9-octadecenoate]: the Inhibition % turned out to be 100% in test [1], 100% in test [2] and 38% in test [3].

As to `CCOC(=O)CCCCCCC/C=C\CCCCCC[C@H](C)O[C@@H]1O[C@H](CO)[C@@H](O)[C@H](O)[C@H]1O[C@@H]1O[C@H](COC(C)=O)[C@@H](O)[C@H](O)[C@H]1O` (relative stereo) [SL Ethyl Ester Monoacetate, Ethyl 17-L-[(2′-O-β-D-glucopyranosyl-β-D-glucopyranosyl)-oxy]-cis-9-octadecenoate-6″-acetate], the results for the Inhibition % in test [1], in test [2] and in test [3] were 42%, 35% and 100%, respectively.

Turning to `CCOC(=O)CCCCCCC/C=C\CCCCCCC(C)O[C@@H]1O[C@H](CO)[C@@H](O)[C@H](O)[C@H]1O[C@@H]1O[C@H](CO)[C@@H](O)[C@H](O)[C@H]1O` (relative stereo) [SL - Ethyl Ester, Ethyl 17-L-([2′-O-β-D-glucopyranosyl-β-D-glucopyranosyl]-oxy)-cis-9-octadecenoate], the Inhibition % in test [1] amounted to 28%; in test [2], 35%; in test [3], 20%.

Consider `CCOC(=O)CCCCCCC/C=C\CCCCCCC(C)O[C@@H]1O[C@H](COC(C)=O)[C@@H](O)[C@H](O)[C@H]1O[C@@H]1O[C@H](COC(C)=O)[C@@H](O)[C@H](O)[C@H]1O` (relative stereo) [SL Ethyl Ester Diacetate, Ethyl 17-L-([2′-O-β-D-glucopyranosyl-β-D-glucopyranosyl]-oxy)-cis-9-octadecenoate 6′,6″-diacetate], for which the Inhibition % in test [1], in test [2] and in test [3] was 100% each time.

Consider `COC(=O)CCCCCCC/C=C\CCCCCC[C@H](C)O[C@@H]1O[C@H](CO)[C@@H](O)[C@H](O)[C@H]1O[C@@H]1O[C@H](CO)[C@@H](O)[C@H](O)[C@H]1O` (relative stereo) [SL - Methyl Ester, Methyl 17-L-([2′-O-β-D-glucopyranosyl-β-D-glucopyranosyl]-oxy)-cis-9-octadecenoate], for which the Inhibition % in test [1] came to 71%; in test [2], 100%; in test [3], 100%.
